The structures appear in SMILES notation.

This assay concerns the target T1, P-glycoprotein (Homo sapiens, UniProt P08183).
T1 construct: gene ABCB1
The assay is described as follows: Rhodamine-123 accumulation kinetics (Lineweaver-Burk) and bidirectional transport in MDCK-hMDR1 cells. The assay is classed as cell-based.

T1 sequence (P08183 whole entry): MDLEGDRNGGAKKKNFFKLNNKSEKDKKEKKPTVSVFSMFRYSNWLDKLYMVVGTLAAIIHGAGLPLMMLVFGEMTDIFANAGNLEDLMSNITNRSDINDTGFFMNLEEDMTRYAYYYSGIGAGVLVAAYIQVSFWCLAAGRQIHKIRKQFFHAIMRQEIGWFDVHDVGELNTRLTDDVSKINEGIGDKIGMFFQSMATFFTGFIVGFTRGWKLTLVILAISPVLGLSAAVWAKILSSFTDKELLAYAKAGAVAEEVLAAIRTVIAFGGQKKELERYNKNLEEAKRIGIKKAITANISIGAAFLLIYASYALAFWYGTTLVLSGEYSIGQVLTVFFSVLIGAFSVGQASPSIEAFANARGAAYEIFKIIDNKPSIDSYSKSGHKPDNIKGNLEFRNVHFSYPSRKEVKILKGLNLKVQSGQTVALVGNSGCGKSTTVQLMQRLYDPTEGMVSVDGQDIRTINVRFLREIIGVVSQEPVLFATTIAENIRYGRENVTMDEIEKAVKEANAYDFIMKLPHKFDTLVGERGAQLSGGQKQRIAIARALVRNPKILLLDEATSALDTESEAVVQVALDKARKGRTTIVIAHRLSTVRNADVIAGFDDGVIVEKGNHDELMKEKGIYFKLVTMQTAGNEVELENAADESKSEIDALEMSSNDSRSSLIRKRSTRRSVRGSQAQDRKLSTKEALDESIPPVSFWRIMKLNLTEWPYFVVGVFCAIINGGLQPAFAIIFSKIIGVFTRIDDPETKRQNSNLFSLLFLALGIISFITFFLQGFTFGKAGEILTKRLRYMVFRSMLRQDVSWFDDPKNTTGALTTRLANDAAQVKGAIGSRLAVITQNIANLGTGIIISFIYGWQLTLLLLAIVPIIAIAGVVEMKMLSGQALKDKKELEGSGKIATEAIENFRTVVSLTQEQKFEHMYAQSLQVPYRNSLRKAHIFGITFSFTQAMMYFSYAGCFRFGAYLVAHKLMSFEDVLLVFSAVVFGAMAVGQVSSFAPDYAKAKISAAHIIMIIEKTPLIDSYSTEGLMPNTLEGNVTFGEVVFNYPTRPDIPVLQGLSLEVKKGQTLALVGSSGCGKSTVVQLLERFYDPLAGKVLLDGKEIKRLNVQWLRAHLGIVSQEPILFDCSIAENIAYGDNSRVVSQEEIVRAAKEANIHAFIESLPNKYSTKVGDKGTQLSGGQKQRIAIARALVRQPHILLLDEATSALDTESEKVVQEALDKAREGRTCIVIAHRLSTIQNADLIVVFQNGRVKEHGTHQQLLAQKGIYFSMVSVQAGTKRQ

As for `O=C1c2c(O)cc(O)cc2O[C@H](c2ccc(O)cc2)[C@@H]1[C@@H]1C(=O)c2c(O)cc(O)cc2O[C@H]1c1ccc(O)cc1` [NCB, Neochamaejasmin B], the Ki was 45.2 µM.

What is called Ki is the equilibrium dissociation constant of an inhibitor or competing ligand from its target. Read a high Ki as a looser hold on the target.

(Values after paper PMC6272504, “Inhibitory Effects of Neochamaejasmin B on P-Glycoprotein in MDCK-hMDR1 Cells and Molecular Docking of NCB Binding in P-Glycoprotein” (Molecules, 2015).)
